Test results: paper PMC8957246, “Synthesis and diverse biological activity profile of triethylammonium isatin-3-hydrazones” (ADMET & DMPK, 2022)
Where a name gives a salt, the structure may show the parent alone. Read-outs that look alike come from different tables or passages of the source. Marks after values point to notes of the source that are not given here.

Tests used:
human erythrocytes = experiment: Hemolytic activity; assay type: cell-based; details: compared within series 3a-g and reference drug
Method: Hemolytic activity of test compounds was estimated by comparing the optical density of a solution containing the test compound with that of blood at 100 % hemolysis. The experiments were carried out as described earlier.
An important step in the determination of the biological activity of new chemical compounds is the assessment of their cytotoxic action in relation to mammalian cells. The ability of the investigated compound to cause the destruction of human erythrocytes illustrates its toxic effect on the internal environment of the body. The hemolysis assay is a simple screening test, the results of which can help in the study of cytotoxicity in more complex models. Such experimental models can be the cell lines obtained from various organs and tissues of a person and allowing to adequately assessing the effect of new potential drugs on cell metabolism.

[1] = tested on: platelets (collagen-induced aggregation); experiment: Platelet aggregation (Born method), collagen-induced; assay type: cell-based; details: Homo sapiens, collagen 5 mg/mL, final concentration 2×10^–3 mol/L, median (25-75 percentiles), read-out: Platelets aggregation, % of control, Collagen
Method: (§1) The in vitro experiments were performed using the blood of healthy male donors aged 18-24 years (total 54 donors). The study was approved by the Ethics Committee of Federal State Budgetary Educational Institution of Higher Education at the Bashkir State Medical University of the Ministry of Health of Russian Federation (No.2 dated 17.10.2012). Informed consent was obtained from all participants before blood sampling. The blood was collected from the cubital vein using the system of vacuum blood collection BD Vacutainer® (Becton, Dickinson and Company, USA). A 3.8 % sodium citrate solution in a 9:1 ratio was used as a venous blood stabiliser. The study of the effect on platelet aggregation was performed using the Born method using the aggregometer «AT-02» (SPC Medtech, Russia). The assessment of antiplatelet activity of the studied compounds and reference preparations was started with the final concentration of 2×10^–3 mol/L. Adenosine diphosphate (ADP; 20 μg/mL) and collagen (5 mg/mL) manufactured by Tehnologia-Standart Company, Russia, were used as inducers of aggregation. The study on the anticoagulant activity was performed by standard recognised clotting tests using the optical two-channel automatic analyser of blood coagulation Solar CGL 2110 (CJSC SOLAR, Belarus). The following parameters were studied: activated partial thromboplastin time (APTT), prothrombin time (PT) and fibrinogen concentrations according to the Clauss method. The determination of anticoagulant activity of the studied compounds and reference preparation was performed in a concentration of 5×10^–4 g/mL using the reagents manufactured by Tehnologia-Standart Company (Barnaul, Russia). The results of the study were processed using the statistical package Statistica 10.0 (StatSoft Inc, USA). The Shapiro–Wilk’s test was used to check the normality of actual data distribution. The form of distribution of the data obtained differed from the normal one; therefore, non-parametric methods were used for further analysis. The data were presented as medians and 25 and 75 percentiles. Analysis of variance was conducted using Kruskal–Wallis test. A p value of 0.05 was considered statistically significant.

[2] = tested on: Enterococcus faecalis ATCC 29212; experiment: Antimicrobial activity, serial dilution (MIC/MBC), Ef; assay type: cell-based; details: ATCC29212
Method: (§2) The antimicrobial activity of the test compounds was determined by the serial dilution technique in Muller Hinton Broth 2 and in Sabouradu broth for fungi. The cultures used for testing included Gram-positive bacteria: Staphylococcus aureus ATCC 6538P FDA 209P, Bacillus cereus ATCC 10702 NCTC 8035, Enterococcus faecalis ATCC 29212; Gram-negative bacteria: Escherichia coli ATCC 25922, Pseudomonas aeruginosa ATCC 9027, and fungi: Trichophyton mentagrophytes var. gypseum 1773, and Candida albicans ATCC 10231; methicillin-resistant strains of S. aureus (MRSA) was obtained from hospital patients with chronic tonsillitis in the Republican Clinical Hospital (Kazan, Russia). The bacterial load was 3.0 × 10^5 cfu/ml. The fungi load was 2.0 × 10^3 cfu/ml. The results were recorded every 24 h for 5-7 days. Cultures were incubated at 37 °C. The experiment was repeated three times. […] The minimum inhibitory concentration (MIC) was defined as the minimum concentration of a compound that inhibits the growth of the corresponding test microorganism. The growth of bacteria, as well as the absence of the growth due to the bacteriostatic action of compounds, were recorded.
(§3) Synthesized compounds were further evaluated for antimicrobial activity against test microorganisms: Staphylococcus aureus ATCC 209p (Sa), Bacillus cereus ATCC 8035 (Bc), Escherichia coli CDC F-50 (Ec), Enterococcus faecalis (Ef), Pseudomonas aeruginosa ATCC 9027, Aspergillus niger BKMF-1119, Trichophyton mentagrophytes var. gypseum 1773, and Candida albicans 855-653 including methicillin-resistant strains of S. aureus (MRSA 1 and MRSA 2). The minimum inhibitory (MIC) and minimum bactericidal (MBC) concentrations of ammonium salts were determined against these pathogens (Table 1). Due to the lack of activity of compounds 3a-g against Gram-negative bacterial strains and some fungi, the corresponding data are not shown.

[3] = tested on: Candida albicans ATCC 10231; experiment: Antimicrobial activity, serial dilution (MIC/MBC), Ca; assay type: cell-based; details: ATCC10231
Method: as §2, §3

[4] = tested on: activated partial thromboplastin time (intrinsic coagulation pathway); experiment: Anticoagulant activity, clotting test APTT; design: species or system human; details: concentration 5×10^–4 g/mL; median (25-75 percentiles)
Method: as §1

[5] = tested on: methicillin-resistant strains of S. aureus (MRSA-1); experiment: Antimicrobial activity, serial dilution (MIC/MBC), MRSA-1; assay type: cell-based; details: Staphylococcus aureus
Method: as §2, §3

[6] = tested on: methicillin-resistant strains of S. aureus (MRSA-2); experiment: Antimicrobial activity, serial dilution (MIC/MBC), MRSA-2; assay type: cell-based; details: Staphylococcus aureus
Method: as §2, §3

[7] = tested on: Staphylococcus aureus ATCC 6538P FDA 209P; experiment: Antimicrobial activity, serial dilution (MIC/MBC), Sa; assay type: cell-based; details: Staphylococcus aureus
Method: as §2, §3

[8] = tested on: Bacillus cereus ATCC 10702 NCTC 8035; experiment: Antimicrobial activity, serial dilution (MIC/MBC), Bc; assay type: cell-based
Method: as §2, §3

[9] = tested on: platelets (ADP-induced aggregation); experiment: Platelet aggregation (Born method), ADP-induced; assay type: cell-based; details: Homo sapiens, ADP 20 μg/mL, final concentration 2×10^–3 mol/L, median (25-75 percentiles), read-out: Platelets aggregation, % of control, ADP
Method: as §1

[10] = tested on: Chang liver cell line (Human liver cells); details: reference drug compared with 3a-g

Which melting point does the source give for `CC[N+](CC)(CC)CC(=O)N/N=C1\C(=O)N(Cc2cc(C(C)(C)C)c(O)c(C(C)(C)C)c2)c2ccc([N+](=O)[O-])cc21` (as salt: bromide) [Compound 3f, 2-(2-(1-(3,5-Di-tert-butyl-4-hydroxybenzyl)-5-nitro-2-oxoindolin-3-ylidene)hydrazinyl)-N,N,N-triethyl-2-oxoethanammonium bromide] here?
The melting point was 176 °C.

For `CC[N+](CC)(CC)CC(=O)N/N=C1\C(=O)N(Cc2cc(C(C)(C)C)c(O)c(C(C)(C)C)c2)c2c(Br)cc(Cl)cc21` (as salt: bromide) [Compound 3g, 2-(2-(1-(3,5-Di-tert-butyl-4-hydroxybenzyl)-5-chloro-7-bromo-2-oxoindolin-3-ylidene)hydrazinyl)-N,N,N-triethyl-2-oxoethanammonium bromide], which melting point is on record?
The melting point was 177 °C.

With `CC[N+](CC)(CC)CC(=O)N/N=C1\C(=O)N(Cc2cc(C(C)(C)C)c(O)c(C(C)(C)C)c2)c2c(C)cccc21` [Compound 3b, 2-(2-(1-(3,5-Di-tert-butyl-4-hydroxybenzyl)-7-methyl-2-oxoindolin-3-ylidene)hydrazinyl)-N,N,N-triethyl-2-oxoethanammonium bromide] as the molecule, how does the “toxicity to red blood cells (in words)” value (human erythrocytes) read?
The value was “least toxic”.

And the inhibition at 2000 µM [1]?
The inhibition at 2000 µM was 10.3%.

And the MBC [2]?
Its MBC is greater than 500 µM.

And the MIC [2]?
The MIC was greater than 500 µM.

And the MBC [3]?
Its MBC is greater than 500 µM.

And the MIC [3]?
The MIC was greater than 500 µM.

And the “APTT, % of control” value [4]?
The value was “+7.3 (6.5-9.6) ^*, ^† % of control”.

What about the MBC [5] of the same molecule?
The MBC was 203 µM.

What about the MIC [5] of the same molecule?
Its MIC is 50.8 ± 4.1 µM.

What about the MBC [6] of the same molecule?
Its MBC is 50.8 µM.

What about the MIC [6] of the same molecule?
The MIC was 25.4 ± 2.3 µM.

What about the MIC [7] of the same molecule?
Its MIC is 3.2 ± 0.2 µM.

What about the MBC ([7]; read-out: MBC (converted)) of the same molecule?
The MBC was 25.4 µM.

What about the MIC [8] of the same molecule?
The MIC was 25.4 ± 1.9 µM.

And the MBC ([8]; Bacillus cereus)?
The MBC was 203 µM.

And the MIC ([8]; Bacillus cereus, read-out: MIC)?
Its MIC is roughly 25 µM.

And the inhibition at 2000 µM [9]?
Its inhibition at 2000 µM is 9.7%.

With `COc1cccc2c1C(=O)c1c(O)c3c(c(O)c1C2=O)C[C@@](O)(C(=O)CO)C[C@@H]3O[C@H]1C[C@H](N)[C@H](O)[C@H](C)O1` [doxorubicin] as the molecule, how does the “toxicity to liver cells (in words)” value [10] read?
The value was “much more toxic”.

For gramicidin S [reference compound], which “toxicity to red blood cells (in words)” value (human erythrocytes) is on record?
Its value is “much more toxic”.
